Where a name gives a salt, the structure may show the parent alone.

The first test relates to Frataxin (FXN) mRNA. Briefly: Effect of HDAC inhibitors on frataxin (FXN) mRNA expression, qRT-PCR in compound-treated iPSC derived neuronal cells. To be noted: iPSC, 24 h, compound concentration of 0.625 μM, 24 h incubation, read-out: FXN mRNA fold induction. The test is classed as cell-based. The protocol: Effect of HDAC Inhibitors on Frataxin (FXN) mRNA Expression
Method: mRNA quantification of compound-treated iPSC derived neuronal cells Neuronal stem cells were cultured in Neurobasal A medium (Life technologies #10888022) supplemented with N2, B27 (Life technologies #17502-048 and #17504-044), L-glutamine (Life technologies #25030081), supplemented with 20 ng/ml EGF (R&D Systems #236-EG) and 20 ng/ml bFGF (BioPioneer # HRP-0011). Neuronal differentiation was initiated by removing growth factors and culturing cells in Neurobasal A with N2 and B27. Cells were allowed to differentiate for 16 days. HDAC inhibitory compound was then added and incubate for 24 h. RNA isolation was performed using the RNeasy Plus mini kit (QIAgen #74134) using a QIAcube instrument per manufacturer's instructions. qRT-PCR was performed using qScript One-Step SYBR Green qRT-PCR Kit (Quanta Biosciences 170-8893BR) with the following conditions: 20 minutes at 50° C., 5 minutes at 95° C., and then 40 cycles of 20 seconds at 95° C., 20 seconds at 55° C., 30 seconds at 72° C. The primer sequences to detect expression of FXN were: 5′-[…]-3′ and 5′-[…]-3′.
The data for the following compounds, for FXN mRNA fold induction at a compound concentration of 0.625 μM are shown in Table 1, where A<1, 1<B<2, 2<C<3, 3<D<5, E>5.
Turning to `CN1CC[C@@H](Oc2ccc(C(=O)Nc3ccccc3N)cc2)C1` [Compound 58, (R)-N-(2-aminophenyl)-4-((1-methylpyrrolidin-3-yl)oxy)benzamide], the fold induction at 0.625 µM is 2 to 3. Consider `CC(C)(C)CN1CC[C@@H](Nc2ccc(C(=O)Nc3ccccc3N)cc2)C1` [Compound 106, (R)-N-(2-aminophenyl)-4-((1-neopentylpyrrolidin-3-yl)amino)benzamide], for which the fold induction at 0.625 µM was 2 to 3. Still for that read-out and setting: then `CC(C)(O)CN1CCC(Oc2ccc(C(=O)Nc3ccccc3N)cc2)CC1(C)C` (centres unmarked) [Compound 363, N-(2-aminophenyl)-4-((1-(2-hydroxy-2-methylpropyl)-2,2-dimethylpiperidin-4-yl)oxy)benzamide], with 2 to 3; and `Nc1ccccc1NC(=O)c1ccc(O[C@H]2CCN(CC3CC3)C2)cc1` [Compound 54, (S)-N-(2-aminophenyl)-4-((1-(cyclopropylmethyl)pyrrolidin-3-yl)oxy)benzamide dihydrochloride], with 1 to 2; and `CC(C)(C)CN1CCCC(Oc2ccc(C(=O)Nc3ccccc3N)cc2)CC1` (centres unmarked) [Compound 37, N-(2-aminophenyl)-4-((1-neopentylazepan-4-yl)oxy)benzamide], with 2 to 3. With `Nc1ccccc1NC(=O)c1ccc(OC2CN(C3COC3)C2)cc1` [Compound 126, N-(2-aminophenyl)-4-((1-(oxetan-3-yl)azetidin-3-yl)oxy)benzamide], the fold induction at 0.625 µM was in the range of 1 to 2. On the same count and under the same terms, then `Nc1ccccc1NC(=O)c1ccc(OC2CC3CCC(C2)N3)cc1` (centres unmarked) [Compound 70, 4-((8-azabicyclo[3.2.1]octan-3-yl)oxy)-N-(2-aminophenyl)benzamide hydrochloride], with 1 to 2. Regarding `Nc1ccccc1NC(=O)c1ccc(NC2CN(C3COC3)C2)cc1` [Compound 135, N-(2-aminophenyl)-4-((1-(oxetan-3-yl)azetidin-3-yl)amino)benzamide], the fold induction at 0.625 µM is 1 to 2. Same read-out and setting: for `Nc1ccccc1NC(=O)c1ccc(OC2CN(C3CC3)C2)cc1` [Compound 125, N-(2-aminophenyl)-4-((1-cyclopropylazetidin-3-yl)oxy)benzamide] the value was 1 to 2; for `Nc1ccccc1NC(=O)c1ccc(NC2CCN(CC3CCCCC3)CC2)cc1` [Compound 114, N-(2-aminophenyl)-4-((1-(cyclohexylmethyl)piperidin-4-yl)amino)benzamide], 1 to 2. On the same count and under the same terms, for `Nc1ccccc1NC(=O)c1ccc(N[C@@H]2CCN(CC3CCCCC3)C2)cc1` [Compound 109, (R)-N-(2-aminophenyl)-4-((1-(cyclohexylmethyl)pyrrolidin-3-yl)amino)benzamide] the value was 2 to 3; for `Nc1ccccc1NC(=O)c1ccc(NC2CCN(C3COC3)CC2)cc1` [Compound 141, N-(2-aminophenyl)-4-((1-(oxetan-3-yl)piperidin-4-yl)amino)benzamide], 1 to 2. As for `Nc1ccccc1NC(=O)c1ccc(N[C@@H]2CCN(CC3CC3)C2)cc1` [Compound 107, (R)-N-(2-aminophenyl)-4-((1-(cyclopropylmethyl)pyrrolidin-3-yl)amino)benzamide trihydrochloride], the fold induction at 0.625 µM is 2 to 3. As to `CN1CCC(Oc2ccc(C(=O)Nc3ccccc3N)cc2)CC1` [Compound 66, N-(2-aminophenyl)-4-((1-methylpiperidin-4-yl)oxy)benzamide dihydrochloride], the fold induction at 0.625 µM was in the range of 1 to 2. The same measure, in the same setting: then `CC(C)CN1CCC(Nc2ccc(C(=O)Nc3ccccc3N)cc2)CC1` [Compound 112, N-(2-aminophenyl)-4-((1-isobutylpiperidin-4-yl)amino)benzamide trihydrochloride], with 1 to 2; and `CC(C)CN1CC(Nc2ccc(C(=O)Nc3ccccc3N)cc2)C1` [Compound 88, N-(2-aminophenyl)-4-((1-isobutylazetidin-3-yl)amino)benzamide trihydrochloride], with 1 to 2; and `CN1CC[C@@H](Nc2ccc(C(=O)Nc3ccccc3N)cc2)C1` [Compound 103, (R)-N-(2-aminophenyl)-4-((1-methylpyrrolidin-3-yl)amino)benzamide], with 1 to 2. Turning to `Nc1ccccc1NC(=O)c1ccc(N[C@@H]2CCNC2)cc1` [Compound 102, (R)—N-(2-aminophenyl)-4-(pyrrolidin-3-ylamino)benzamide Trihydrochloride], the fold induction at 0.625 µM was in the range of 2 to 3.

Take `CC(C)(C)CN1CC(Nc2ccc(C(=O)Nc3ccccc3N)cc2)C1` [Compound 90, N-(2-aminophenyl)-4-((1-neopentylazetidin-3-yl)amino)benzamide]: the fold induction at 0.625 µM was in the range of 2 to 3. With `Nc1ccccc1NC(=O)c1ccc(N[C@@H]2CCCN(CC3CCCCC3)CC2)cc1` (single isomer, unassigned) [Compound 85A], the fold induction at 0.625 µM fell in the range of 2 to 3. As to `Nc1ccccc1NC(=O)c1ccc(OC2CCN(CC3CCCCC3)CC2)cc1` [Compound 69, N-(2-aminophenyl)-4-((1-(cyclohexylmethyl)piperidin-4-yl)oxy)benzamide dihydrochloride], the fold induction at 0.625 µM lay within 1 to 2.

Turning to `CC(C)CN1CC[C@H](Nc2ccc(C(=O)Nc3ccccc3N)cc2)C1` [Compound 96, (S)-N-(2-aminophenyl)-4-((1-isobutylpyrrolidin-3-yl)amino)benzamide], the fold induction at 0.625 µM lay within 1 to 2.

As for `Nc1ccccc1NC(=O)c1ccc(NC2CCN(CC3CC3)CC2)cc1` [Compound 3, N-(2-aminophenyl)-4-((1-(cyclopropylmethyl)piperidin-4-yl)amino)benzamide], the fold induction at 0.625 µM was in the range of 1 to 2. On to `Nc1ccccc1NC(=O)c1ccc(OC2CCCN(CC3CCCCC3)CC2)cc1` (single isomer, unassigned) [Compound 40A, N-(2-aminophenyl)-4-((1-(cyclohexylmethyl)azepan-4-yl)oxy)benzamide dihydrochloride], for which the fold induction at 0.625 µM fell in the range of 1 to 2. For the compound `CC(C)CN1CC[C@@H](Oc2ccc(C(=O)Nc3ccccc3N)cc2)C1` [Compound 59, (R)-N-(2-aminophenyl)-4-((1-isobutylpyrrolidin-3-yl)oxy)benzamide dihydrochloride], the fold induction at 0.625 µM was in the range of 1 to 2. `Nc1ccccc1NC(=O)c1ccc(NC2CCCN(CC3CC3)CC2)cc1` (centres unmarked) [Compound 83, N-(2-aminophenyl)-4-((1-(cyclopropylmethyl)azepan-4-yl)amino)benzamide trihydrochloride]: the fold induction at 0.625 µM lay within 2 to 3.

Still in this test, the particulars now being: iPSC, 24 h, read-out: FXN mRNA fold induction, compound concentration of 0.625 μM, 24 h incubation.
As to `Nc1ccccc1NC(=O)c1ccc(OC2CC3CCC(C2)N3CC2CC2)cc1` (centres unmarked) [Compound 75, N-(2-aminophenyl)-4-((8-(cyclopropylmethyl)-8-azabicyclo[3.2.1]octan-3-yl)oxy)benzamide dihydrochloride], the fold induction at 0.625 µM fell in the range of 1 to 2. The same measure, in the same setting: for `Nc1ccccc1NC(=O)c1ccc(N(CC2CC2)C2CCN(CC3CC3)CC2)cc1` [Compound 28, N-(2-aminophenyl)-4-((cyclopropylmethyl)(1-(cyclopropylmethyl)piperidin-4-yl)amino)benzamide Trihydrochloride] the value was 2 to 3; for `CC(C)CN1C2CCC1CC(Oc1ccc(C(=O)Nc3ccccc3N)cc1)C2` (centres unmarked) [Compound 72, N-(2-aminophenyl)-4-((8-isobutyl-8-azabicyclo[3.2.1]octan-3-yl)oxy)benzamide dihydrochloride], 1 to 2.

(Values after patent US10308608B2, “Histone deacetylase inhibitors” (BIOMARIN PHARMACEUTICAL INC., priority 2015, dated 2019).)
